Data: patent US10329269B2, “Indene derivatives and uses thereof” (MUSC FOUNDATION FOR RESEARCH DEVELOPMENT, priority 2017, dated 2019)
Where two headings read alike, the source gives them in different places.

How the values were obtained:
Type in all cases: cell-based
MM.1S BzR cells = assay: Bortezomib sensitization, cell viability in PI-resistant MM.1S BzR cells; conditions: for EC50: Homo sapiens, MM1.S, cell viability after 24 hours
Procedure: (§1) Reference is made to FIG. 1. (A) The structures of novel derivatives E64FC26 and E64FC65 are shown. (B) Proteasome inhibitor (PI) resistant MM.1S BzR cells were treated with the E64FC26 at a concentration of 500 nM and a dose range of the PI bortezomib (Btz). Cell viability was measured after 24 hours of treatment. […] (C) PANC-1 pancreatic cancer cells were treated with the indicated derivative at a final concentration of 1 μM and a dose range of Btz. Cell viability was measured after a 48 hour treatment time. […] (D) Panels of pancreatic, ovarian, glioma, multiple myeloma, and normal cells were treated with E64FC26 and a dose range of the second generation proteasome inhibitor carfilzomib (Crflz) using a protocol similar to that described above for panels (B) and (C). Crflz EC50 values were extrapolated from dose curves conducted in the presence and absence of E64FC26 and a fold-change was calculated. Each data point represents the fold-change, or the degree of Crflz potentiation, for each cell line tested.

[1] = test system: PANC-1 pancreatic cancer cells; assay: Bortezomib sensitization, cell viability in PANC-1 pancreatic cancer cells; conditions: PANC-1 cells; for EC50: Homo sapiens, cell viability after 48 hour treatment; for fold increase in Btz sensitivity: compound at 1 μM vs DMSO, 48 hour
Procedure: as §1

[2] = test system: PANC-1 pancreatic cancer cells; assay: Panobinostat (HDAC inhibitor) sensitization, cytotoxicity in PANC-1 pancreatic cancer cells; conditions: PANC-1 cells; for EC50: Homo sapiens; for increase in panobinostat sensitivity (fold): 1 μM compound vs DMSO
Procedure: Reference is made to FIG. 3. (A) In PANC-1 pancreatic cancer cells, the cytotoxicity of each of the indicated HDAC inhibitors was evaluated in the presence and absence of 1 μM E64FC26. EC50 values are shown. (B) Similar experiments as described in (A) were conducted using T98G glioblastoma cells. EC50 values for each of the HDAC inhibitor in the presence and absence of 1 μM E64FC26. (C) Panels of the indicated tumor cell types were treated with a dose range of the HDAC inhibitor panobinostat in the presence and absence of 1 μM E64FC26. EC50 values were extrapolated and the relative effect of E64FC26 on panobinostat sensitivity was calculated. Each data point indicated the fold change in panobinostat EC50 for that particular cell line. (D) An example of full panobinostat dose response curves in PANC-1 pancreatic cancer cells are shown. PANC-1 cells were co-treated with DMSO vehicle control, 1 μM E64FC26, or 1 μM E64FC65.

[3] = compound at 1 μM, read-out: Btz EC50 in the presence of the compound
[4] = co-treated with 1 μM compound, read-out: panobinostat EC50 in the presence of the compound

Row | SMILES | EC50 (MM.1S BzR cells; Btz alone (DMSO vehicle), read-out: Btz EC50, control cells treated with DMSO vehicle) [nM] | EC50 ([1]; Btz alone (DMSO vehicle), read-out: Btz EC50 in the presence of DMSO vehicle control) [nM] | fold increase in Btz sensitivity (MM.1S BzR cells; 500 nM compound vs DMSO, 24 hours) [fold] | EC50 (MM.1S BzR cells; co-treatment with 500 nM compound, read-out: Btz EC50 in cells co-treated with the compound) [nM] | EC50 [1, 3] [nM] | fold increase in Btz sensitivity [1] [fold] | EC50 [2, 4] [nM] | increase in panobinostat sensitivity (fold) [2] [fold] | EC50 ([2]; panobinostat alone (DMSO vehicle), read-out: panobinostat EC50 in DMSO treated cells) [nM]
1 | CC(C)C[C@H](NC(=O)[C@H](Cc1ccccc1)NC(=O)c1cnccn1)B(O)O [Btz, bortezomib, reference compound] | 45.5 | 83.5 |  |  |  |  |  |  | 
2 | CCCCCCCC/C=C1\C=C(C(F)(F)F)c2cc(O)c(O)cc21 [E64FC26] |  |  | 9.7 | 4.7 | 9.1 | 9.2 | 5.3 | 85.5 | 
3 | CCCCCC/C=C1\C=C(C(F)(F)F)c2cc3c(cc21)OCO3 [E64FC65, (5E)-7-(trifluoromethyl)-5-heptylidene-5H-indeno[5,6-d][1,3]dioxole] |  |  |  |  | 1.8 | 46.4 | 1.1 | 412 | 
4 | Cc1[nH]c2ccccc2c1CCNCc1ccc(/C=C/C(=O)NO)cc1 [panobinostat, reference compound] |  |  |  |  |  |  |  |  | 453
